Source: ChEMBL document CHEMBL1201862, “PubChem BioAssay data set” (2004)
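Cells were grown in 96-well plates and exposed to each compound for 48 hours at five concentrations; endpoints were interpolated linearly between bracketing concentrations, or set to the highest concentration if not reached. At the GI50, growth is halved.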 Activity calls are given as the source filed them. Rule as the data show it: active = GI50 up to about 1.1 µM and inactive = higher.

Columns and labels:
Experiment in all cases: growth of human tumour cells (NCI), 48 h
OVCAR-3 = system: OVCAR-3
SK-MEL-2 = system: SK-MEL-2
SN12C = system: SN12C
NCI-H460 = system: NCI-H460
SW-620 = system: SW-620
IGROV-1 = system: IGROV-1
A498 = system: A498
CAKI-1 = system: CAKI-1
UACC-257 = system: UACC-257
HCC 2998 = system: HCC 2998
EKVX = system: EKVX
OVCAR-5 = system: OVCAR-5
SNB-19 = system: SNB-19
U-251 = system: U-251
OVCAR-8 = system: OVCAR-8
Malme-3M = system: Malme-3M
HT-29 = system: HT-29
M14 = system: M14
KM12 = system: KM12
SK-MEL-5 = system: SK-MEL-5

Measured: GI50

Cc1ccc(S[C@@H](C)[C@@](O)(CF)CN(Cc2ccccc2)C(=O)C(F)(F)F)cc1
inactive: OVCAR-3 13.7 µM | SK-MEL-2 18.5 µM | SN12C 18.4 µM | NCI-H460 15.5 µM | SW-620 23.9 µM | IGROV-1 > 100 µM | A498 11.5 µM | CAKI-1 25.5 µM | UACC-257 20.9 µM | HCC 2998 18.3 µM | EKVX 21.8 µM | OVCAR-5 14.8 µM | SNB-19 23.4 µM | U-251 19 µM | OVCAR-8 5.09 µM | Malme-3M 20.9 µM | HT-29 10.3 µM | M14 17.1 µM

CC1(C)CCC[C@@]2(C)C1C(=O)[C@@H]1O[C@]1(C)[C@@H]2CO (some centres not stated)
inactive: KM12 29.4 µM | OVCAR-3 18.4 µM | SK-MEL-2 28.1 µM | SN12C 25.5 µM | NCI-H460 13.5 µM | SW-620 24.7 µM | IGROV-1 45.8 µM | A498 38.6 µM | UACC-257 43.8 µM | HCC 2998 20.4 µM | EKVX 31.6 µM | OVCAR-5 > 100 µM | SNB-19 24.4 µM | U-251 14.8 µM | OVCAR-8 27.3 µM | Malme-3M 37.9 µM | SK-MEL-5 46.2 µM | HT-29 37.9 µM | M14 24.4 µM

CC(=O)NNc1nc(C)c(C(/C=C/c2ccc(Cl)cc2)=N/NC(=O)C[N+](C)(C)C)s1
inactive: KM12 > 100 µM | OVCAR-3 > 100 µM | SK-MEL-2 > 100 µM | NCI-H460 > 100 µM | SW-620 > 100 µM | IGROV-1 > 100 µM | A498 > 100 µM | CAKI-1 > 100 µM | UACC-257 > 100 µM | HCC 2998 > 100 µM | EKVX > 100 µM | OVCAR-5 > 100 µM | SNB-19 > 100 µM | Malme-3M > 100 µM | SK-MEL-5 > 100 µM | HT-29 > 100 µM | M14 > 100 µM

O=C(NN1C(=O)CS(=O)(=O)C1c1cccc(F)c1)c1ccncc1 (configuration not stated)
inactive: KM12 > 100 µM | SK-MEL-2 > 100 µM | SN12C > 100 µM | NCI-H460 > 100 µM | SW-620 > 100 µM | A498 > 100 µM | CAKI-1 > 100 µM | UACC-257 > 100 µM | HCC 2998 > 100 µM | OVCAR-5 > 100 µM | SNB-19 > 100 µM | U-251 > 10 µM | Malme-3M > 100 µM | SK-MEL-5 > 100 µM | HT-29 > 100 µM | M14 > 100 µM

Cc1nc(-[n+]2nc(-c3ccncc3)nn2-c2ccccc2)sc1C
inactive: KM12 36.9 µM | SK-MEL-2 > 100 µM | SN12C 49.4 µM | SW-620 20.2 µM | IGROV-1 5.01 µM | A498 92.7 µM | CAKI-1 19.1 µM | UACC-257 26.7 µM | HCC 2998 > 100 µM | EKVX 27.2 µM | OVCAR-5 44.6 µM | SNB-19 35.9 µM | U-251 29.4 µM | OVCAR-8 42.9 µM | Malme-3M > 100 µM | SK-MEL-5 29.4 µM | HT-29 55.1 µM | M14 49.3 µM

O=C1C[C@H]2[C@@H](O1)[C@@H](O)CN1C(=O)c3ccccc3[C@H]21
inactive: KM12 > 100 µM | SK-MEL-2 > 100 µM | SN12C > 100 µM | NCI-H460 > 100 µM | SW-620 > 100 µM | IGROV-1 > 100 µM | A498 > 100 µM | CAKI-1 > 100 µM | UACC-257 > 100 µM | HCC 2998 > 100 µM | EKVX > 100 µM | OVCAR-5 > 100 µM | SNB-19 > 100 µM | U-251 > 100 µM | OVCAR-8 > 100 µM | Malme-3M > 100 µM | SK-MEL-5 > 100 µM | HT-29 > 100 µM | M14 > 100 µM

COc1ccc(/C=C/C(=O)C(C)(C)CN2CCCCC2)cc1
inactive: KM12 22.1 µM | OVCAR-3 18.2 µM | SK-MEL-2 16.3 µM | SN12C 18.3 µM | NCI-H460 18.7 µM | SW-620 1.13 µM | IGROV-1 26.2 µM | A498 16.9 µM | UACC-257 17.4 µM | HCC 2998 18.3 µM | EKVX 44.7 µM | OVCAR-5 33.7 µM | SNB-19 57.7 µM | U-251 15.4 µM | OVCAR-8 19 µM | Malme-3M 22.2 µM | SK-MEL-5 19 µM | HT-29 16.6 µM | M14 18.2 µM

Cc1cccc(N/C(=C(/C(Cl)=C(Cl)Cl)[N+](=O)[O-])n2nnc3ccccc32)c1
inactive: KM12 14.9 µM | OVCAR-3 15.3 µM | SK-MEL-2 19.1 µM | SN12C 15.5 µM | NCI-H460 20.7 µM | SW-620 15.8 µM | A498 12.5 µM | CAKI-1 17.5 µM | UACC-257 22 µM | HCC 2998 29.2 µM | EKVX 18.6 µM | OVCAR-5 16.6 µM | SNB-19 18.2 µM | U-251 14 µM | OVCAR-8 16.5 µM | Malme-3M 14.9 µM | HT-29 17.3 µM | M14 21.9 µM

CC1=CCC[C@@]2(C)C(CC[C@@H]2C(C)/C=C/C(C)C)c2ccc(cc2C(=O)O)C[C@@H](O)CC1 (some centres not stated)
inactive: KM12 11 µM | OVCAR-3 13.7 µM | SK-MEL-2 17.1 µM | SN12C 16 µM | NCI-H460 7.01 µM | SW-620 14.9 µM | IGROV-1 12.3 µM | A498 20.2 µM | CAKI-1 17 µM | UACC-257 16.6 µM | HCC 2998 9.93 µM | OVCAR-5 16.4 µM | SNB-19 5.2 µM | U-251 3.94 µM | OVCAR-8 15.2 µM | Malme-3M 15.7 µM | SK-MEL-5 3.59 µM | HT-29 5.13 µM | M14 16.9 µM

CC(=O)N(C)c1ccc2c(ccc[n+]2[O-])c1[N+](=O)[O-]
inactive: KM12 > 100 µM | OVCAR-3 > 100 µM | SK-MEL-2 > 100 µM | SN12C > 100 µM | NCI-H460 > 100 µM | SW-620 > 100 µM | IGROV-1 > 100 µM | A498 > 100 µM | CAKI-1 > 100 µM | UACC-257 > 100 µM | HCC 2998 > 100 µM | EKVX > 100 µM | OVCAR-5 > 100 µM | U-251 > 100 µM | OVCAR-8 > 100 µM | Malme-3M > 100 µM | SK-MEL-5 > 100 µM | HT-29 > 100 µM | M14 > 100 µM

CN(C)CCNC(=O)c1cccc2nc3c(Cl)cccc3nc12
inactive: KM12 5.75 µM | OVCAR-3 6.38 µM | SK-MEL-2 5.22 µM | SN12C 4.52 µM | SW-620 3.92 µM | IGROV-1 6.41 µM | A498 4.63 µM | CAKI-1 > 20.7 µM | UACC-257 4.93 µM | HCC 2998 8.85 µM | EKVX 8.61 µM | OVCAR-5 7.93 µM | SNB-19 8.13 µM | U-251 5.18 µM | OVCAR-8 4.46 µM | Malme-3M 2 µM | SK-MEL-5 5.06 µM | HT-29 3.18 µM | M14 6.24 µM

O=C/C=C/c1ccco1
inactive: KM12 > 100 µM | OVCAR-3 > 100 µM | SK-MEL-2 > 100 µM | SN12C > 100 µM | SW-620 > 100 µM | IGROV-1 > 100 µM | A498 > 100 µM | CAKI-1 > 100 µM | UACC-257 > 100 µM | HCC 2998 > 100 µM | EKVX > 100 µM | OVCAR-5 > 100 µM | SNB-19 > 100 µM | U-251 96.8 µM | OVCAR-8 > 100 µM | Malme-3M > 100 µM | SK-MEL-5 > 100 µM | HT-29 > 100 µM | M14 > 100 µM

N#CC(C#N)=C(N)/C(C#N)=C/c1ccc(O)c(O)c1
inactive: KM12 69.5 µM | OVCAR-3 37.5 µM | SK-MEL-2 > 100 µM | NCI-H460 50.5 µM | SW-620 50.2 µM | IGROV-1 > 55.1 µM | A498 > 100 µM | CAKI-1 > 100 µM | UACC-257 > 95.5 µM | HCC 2998 > 100 µM | EKVX > 70.3 µM | OVCAR-5 > 58.3 µM | SNB-19 > 92.5 µM | U-251 > 89.5 µM | OVCAR-8 40.5 µM | Malme-3M > 100 µM | SK-MEL-5 78.9 µM | HT-29 > 92.9 µM | M14 > 100 µM

Cc1ncc([N+](=O)[O-])n1CCNC(=O)Cn1ccnc1[N+](=O)[O-]
inactive: KM12 > 100 µM | OVCAR-3 > 100 µM | SK-MEL-2 > 100 µM | SN12C > 100 µM | NCI-H460 > 100 µM | SW-620 > 100 µM | IGROV-1 > 100 µM | A498 > 100 µM | CAKI-1 > 100 µM | UACC-257 > 100 µM | HCC 2998 > 100 µM | OVCAR-5 > 100 µM | SNB-19 > 100 µM | U-251 > 100 µM | OVCAR-8 > 100 µM | Malme-3M > 100 µM | SK-MEL-5 > 100 µM | HT-29 > 100 µM | M14 > 100 µM

COc1ccc(-c2cc(=O)c3c(OC)c(OC)c(OC)c(OC)c3o2)cc1 [TANGERETIN]
inactive: OVCAR-3 42.4 µM | SK-MEL-2 90.6 µM | SN12C 65.2 µM | NCI-H460 56.2 µM | SW-620 67.8 µM | IGROV-1 69 µM | A498 22.8 µM | CAKI-1 53.6 µM | UACC-257 68.4 µM | HCC 2998 91 µM | EKVX 49.1 µM | OVCAR-5 > 100 µM | SNB-19 > 100 µM | U-251 91 µM | OVCAR-8 41.2 µM | Malme-3M 84.1 µM | SK-MEL-5 27.7 µM | HT-29 35.2 µM | M14 76.9 µM
